In publication PMC8246065 (The EMBO Journal, 2021):

Tested on: BMDMs
Test: Il6 expression and multiplex cytokine production in WT, Nod1/2 KO and Rip2 KO BMDMs
Type: cell-based, mice
Details: S1P 10 µM with digitonin (2.5 µg/ml); WT vs Nod1/2 KO and Rip2 KO
Procedure: The human monocytic cell line THP‐1 was obtained from the American Type Culture Collection (ATCC, TIB‐202) and maintained in RPMI 1640 (Gibco, 31870) with 10% (v:v) heat‐inactivated fetal bovine serum (FBS, Sigma‐Aldrich, F0804), 1 mM sodium pyruvate (Gibco, 11360070), 2 mM L‐glutamine (Gibco, 25030081), 10 mM HEPES buffer (Gibco, 15630080), pH 7.2‐7.5, and 50 µM 2‐mercaptoethanol (Gibco, 31350010). To differentiate THP‐1 into macrophage‐like cells, THP‐1 cells were stimulated with 50 ng/ml phorbol 12‐myristate 13‐acetate (Sigma‐Aldrich, P8139) for 24 h and then incubated with fresh medium for another 48 h. HEK293T WT and HEK293T NOD1/2 dKO cells were generated as described (Dagil et al, 2016). […]
Total RNA was isolated with TRIzol reagent, as described by the manufacturer (Invitrogen). […] Gene expression was normalized to glyceraldehyde‐3‐phosphate dehydrogenase (GAPDH), and fold changes were calculated against corresponding controls. qRT–PCR data were representative of at least three independent experiments, with at least 2 technical replicates per experiment. […]

CCCCCCCCCCCCC/C=C/[C@@H](O)[C@@H](N)COP(=O)(O)O [S1P, sphingosine‐1‐phosphate]
Il6 expression and production of IL6, CXCL2, CCL5 and IL16: markedly impaired in Nod1/2 KO and Rip2 KO BMDMs
